Reference: PMC4669759 (Cell Death & Disease, 2015)

Columns and labels:
Bak-/- Bax-/- MEFs = assay: Cell viability, Bak-/- Bax-/- murine embryonic fibroblasts; assay type: cell-based; settings: 48 h
Procedure: Supplementary Figure 4. […] Murine embryonic fibroblasts (MEFs) lacking Bak and Bax were treated with increasing concentrations of A-1155905, A-1208746, A-1210477, staurosporine or bortezomib for 48 h before assessing cell viability. Data represent the mean of triplicate experiments and error bars indicate the standard error of the mean.

RS4;11 cell line = assay: Cell viability, RS4;11 cells; assay type: cell-based; settings: RS4;11, 48 h
Procedure: (§1) Figure 4 Indole-2-carboxylic acids induce the hallmarks of apoptosis in MCL-1-dependent cancer cell line H929. (a) Digitonin-permeabilized H929 cells were treated with 10 μM BH3 peptides for 4 h, and intact H929 cells were incubated with increasing concentrations (0.1–10 μM) of A-1208746 for 4 h before assessing the levels of cytochrome c released into the cytosol. (b) H929 and RS4;11 cells were incubated with increasing concentrations of MCL-1 inhibitors or the BCL-2-selective inhibitor ABT-199 (venetoclax) for 48 h before determining cell viability. Cell killing IC50s are plotted with each value representing the mean of three separate experiments. Error bars represent the S.E.M. (c) H929 cells were incubated with increasing concentrations of MCL-1 inhibitors in the presence or absence of the pan-caspase inhibitor QVD (100 μM) for 4 h before assessing caspase-3/-7 activation, mitochondrial membrane polarization, and the exposure of phosphatidylserine. […]
(§2) Adherent cell lines were seeded at 50 000 cells per well in 96-well plates and treated for 48 h with compounds diluted in half-log steps starting at 30 μM and ending at 0.001 μM. […] Effects on proliferation and viability were determined using CellTiter-Glo reagent from Promega (Madison, WI, USA) according to the manufacturer's instructions. IC50 values were determined by non-linear regression analysis of the concentration response data.

H929 cells [1] = assay: Cytochrome c release in H929 cells; assay type: cell-based, human; settings: intact H929 cells, within 4 h
Procedure: as §1, with “experiments.” for “experiments. Error bars represent the S.E.M. (c) H929 cells were incubated with increasing concentrations of MCL-1 inhibitors in the presence or absence of the pan-caspase inhibitor QVD (100 μM) for 4 h before assessing caspase-3/-7 activation, mitochondrial membrane polarization, and the exposure of phosphatidylserine.”
(§3) H929 cells were cultured in RPMI 1640 (Invitrogen Corp., Grand Island, NY, USA) supplemented with 10% fetal bovine serum (Invitrogen), 1% sodium pyruvate, 25 mM HEPES, 4.5 g/l glucose, and 1% penicillin/streptomycin (Sigma) and maintained in a humidified chamber at 37 °C containing 5% CO2. […] Following treatment, the hallmarks of apoptosis (activation of caspase-3/-7, mitochondrial membrane depolarization, and phosphatidylserine externalization) were measured using the IntelliCyt (Albuquerque, NM, USA) MultiCyt 4-Plex Apoptosis Screening Kit according to the manufacturer's instructions and read by flow cytometry using a HTFC screening system (IntelliCyt). […] Data were expressed as the percentage of singlet cells. […]

H929 cells [2] = assay: Hallmarks of apoptosis in H929 cells (caspase-3/-7, mitochondrial membrane depolarization, phosphatidylserine); assay type: cell-based, human; settings: H929, 4 h
Procedure: as §1, with “experiments.” for “experiments. Error bars represent the S.E.M. (c) H929 cells were incubated with increasing concentrations of MCL-1 inhibitors in the presence or absence of the pan-caspase inhibitor QVD (100 μM) for 4 h before assessing caspase-3/-7 activation, mitochondrial membrane polarization, and the exposure of phosphatidylserine.”
as §3

H929 cells [3] = assay: Cell viability, H929 cells; assay type: cell-based, human; settings: H929, 48 h
Procedure: as §1, §2

BCL-XL–BAD complexes = molecular target: T1, BCL-XL–BAD complexes (Homo sapiens, UniProt Q07817); assay: Live cell redistribution assay, eGFP-BCL-XL and mCherry-BAD, T-REx-293 cells; assay type: cell-based; settings: 10 μM, 300 min
T1 construct: expressed in transfected cells; host or cells: T-REx-293, bicistronic expression module integrated at a single genomic site
From the text: (§4) To further rule out potential artifacts associated with lysate detergents that can influence interactions between BCL-2 family proteins,[47] we employed a recently described real-time imaging method to assess the effects on BCL-2 family complexes in live cells.[48] Briefly, interacting pairs of BCL-2 family proteins are expressed as fluorescent fusion proteins at stoichiometric levels from a bicistronic expression module integrated into a single site of the genome in T-REx-293 cells. […]
(§5) Figure 3 A-1210477 inhibits MCL-1-BIM complexes in live cells. […] The decrease in amount of mCherry-BH3 protein localized to the mitochondria was quantified as a function of time as described in the Materials and Methods, normalized to DMSO control, and fitted to a single exponential decay. Each data point represents the mean change in intensity calculated from 10 fields of view, with error bars indicating the S.E.M. (b) T-REx-293 cells stably expressing eGFP-MCL-1(3B) and mCherry-BIMS(2A)ΔC were treated with 50 μM ABT-737 or increasing concentrations (1–25 μM) A-1210477 for 100 min. The decrease in amount of mCherry-BIMS(2A)ΔC localized to the mitochondria was quantified as in panel (a). (c) Representative fluorescence microscopic images of T-REx-293 cells stably expressing eGFP-BCL-2 family and interacting mCherry-BH3-only proteins before and after 300 min of treatment with 10 μM A-1210477 or (d) ABT-737. […]

[4] = test system: MCL-1(3B)–BIMS(2A)ΔC complexes; assay: Live cell redistribution assay, eGFP-MCL-1(3B) and mCherry-BIMS(2A)ΔC, T-REx-293 cells; assay type: cell-based; settings: T-REx-293 cells expressing MCL-1(3B)
From the text: To further rule out potential artifacts associated with lysate detergents that can influence interactions between BCL-2 family proteins,[47] we employed a recently described real-time imaging method to assess the effects on BCL-2 family complexes in live cells.[48] Briefly, interacting pairs of BCL-2 family proteins are expressed as fluorescent fusion proteins at stoichiometric levels from a bicistronic expression module integrated into a single site of the genome in T-REx-293 cells. Under basal conditions, both proteins localize primarily to the mitochondria, where the anti-apoptotic proteins (enhanced green fluorescent protein (eGFP)-BCL-2, eGFP-BCL-XL, or eGFP-MCL-1(3B)) sequester their pro-apoptotic counterparts (mCherry-BAD or mCherry-BIMS(2A)ΔC, the latter being a specific binder of MCL-1[48], [49]). Disruption of these complexes can be tracked by measuring the amount of mCherry-labeled BH3-only protein localized specifically to the mitochondria. […]
as §5
Experiments were carried out as detailed previously.[48] […] Therefore, the entire cell was identified with a single intensity threshold applied to the eGFP fluorescence, excluding areas identified as mitochondria. […]

BCL-2–BAD complexes = molecular target: T2, BCL-2–BAD complexes (Homo sapiens, UniProt P10415); assay: Live cell redistribution assay, eGFP-BCL-2 and mCherry-BAD, T-REx-293 cells; assay type: cell-based; settings: 10 μM, 300 min
T2 construct: expressed in transfected cells; host or cells: T-REx-293, bicistronic expression module integrated at a single genomic site
From the text: as §4, §5

OPM-2 cells = assay: Navitoclax / A-1210477 combination cell viability, OPM-2 cells; assay type: cell-based; settings: OPM-2, up to 3–5 μM, 48 h
Procedure: (§6) Figure 6 A-1210477 synergizes with navitoclax to kill hematological and solid tumor cell lines. BxPC-3, EJ-1, H23, and OPM-2 cells were treated with increasing concentrations of navitoclax in the presence or absence of increasing concentrations of A-1210477 for 48 h before assessing cell viability. All data points represent the means of triplicate experiments, with error bars indicating the S.E.M. TEXT PRINTED IN THE PICTURE: A-1210477 + navitoclax: Bliss sum (BxPC-3): 716; Bliss sum (EJ-1): 464; Bliss sum (H23): 76; Bliss sum (OPM-2): 946 DOUBTS OF THE COPYIST ABOUT THIS PICTURE: The Bliss sums apply to the combination of A-1210477 and navitoclax. The picture prints the two names separately (legend heading and axis title), not as one joined label.
(§7) Adherent cell lines were seeded at 50 000 cells per well in 96-well plates and treated for 48 h with compounds diluted in half-log steps starting at 30 μM and ending at 0.001 μM. Multiple myeloma cell lines were seeded at 15 000–20 000 cells per well and treated similarly. Effects on proliferation and viability were determined using CellTiter-Glo reagent from Promega (Madison, WI, USA) according to the manufacturer's instructions. IC50 values were determined by non-linear regression analysis of the concentration response data.

H23 cells = assay: Navitoclax / A-1210477 combination cell viability, H23 cells; assay type: cell-based, human; settings: H23, up to 3–5 μM, 48 h
Procedure: as §6, §7

EJ-1 cells = assay: Navitoclax / A-1210477 combination cell viability, EJ-1 cells; assay type: cell-based; settings: EJ-1, up to 3–5 μM, 48 h
Procedure: as §6, §7

BxPC-3 cells = assay: Navitoclax / A-1210477 combination cell viability, BxPC-3 cells; assay type: cell-based; settings: BxPC-3, up to 3–5 μM, 48 h
Procedure: as §6, §7

T1 sequence (Q07817 whole entry, one chain of several): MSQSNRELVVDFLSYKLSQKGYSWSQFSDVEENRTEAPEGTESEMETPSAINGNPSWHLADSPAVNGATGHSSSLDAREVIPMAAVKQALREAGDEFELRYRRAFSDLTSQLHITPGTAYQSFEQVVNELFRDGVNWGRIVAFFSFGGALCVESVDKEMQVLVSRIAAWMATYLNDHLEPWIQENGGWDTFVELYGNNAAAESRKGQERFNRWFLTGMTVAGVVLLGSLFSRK
T2 sequence (P10415 whole entry, one chain of several): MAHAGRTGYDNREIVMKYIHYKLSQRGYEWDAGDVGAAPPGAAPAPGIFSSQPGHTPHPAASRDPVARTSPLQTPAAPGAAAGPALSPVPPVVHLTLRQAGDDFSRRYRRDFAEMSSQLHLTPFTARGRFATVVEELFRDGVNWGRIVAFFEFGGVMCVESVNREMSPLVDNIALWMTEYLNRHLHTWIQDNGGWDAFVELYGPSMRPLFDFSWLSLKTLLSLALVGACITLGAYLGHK

## Cc1nn(C)c(COc2ccc(N3CCN(S(C)(=O)=O)CC3)cc2)c1-c1cccc2c(CCCOc3cccc4ccccc34)c(C(=O)O)n(CCN3CCOCC3)c12 [A-1208746]
Bak-/- Bax-/- MEFs
  killing of Bak-/- Bax-/- MEFs: do not Kill
RS4;11 cell line
  effect on cell viability: no effect
H929 cells [1]
  lowest concentration at which cytochrome c was observed in cytosolic fractions: 3 µM
H929 cells [2]
  induction of hallmarks of apoptosis (mitochondrial membrane depolarization, caspase-3/-7 activation, phosphatidylserine externalization): induced the hallmarks of apoptosis
H929 cells [3]
  cell killing IC50: low-μM range

## CN(C)CC[C@H](CSc1ccccc1)Nc1ccc(S(=O)(=O)NC(=O)c2ccc(N3CCN(Cc4ccccc4-c4ccc(Cl)cc4)CC3)cc2)cc1[N+](=O)[O-] [ABT-737, reference compound]
BCL-XL–BAD complexes
  redistribution of mCherry-BAD associated with BCL-XL: induced the redistribution of mCherry-BAD
[4]
  redistribution of mCherry-BIMS(2A)ΔC from mitochondria: no effect
BCL-2–BAD complexes
  redistribution of mCherry-BAD associated with BCL-2: induced the redistribution of mCherry-BAD

## CC1(C)CCC(c2ccc(Cl)cc2)=C(CN2CCN(c3ccc(C(=O)NS(=O)(=O)c4ccc(N[C@H](CCN5CCOCC5)CSc5ccccc5)c(S(=O)(=O)C(F)(F)F)c4)cc3)CC2)C1 [navitoclax, reference compound]
OPM-2 cells
  single agent effect on cell viability: little or no effect
H23 cells
  single agent effect on cell viability: little or no effect
EJ-1 cells
  single agent effect on cell viability: little or no effect
BxPC-3 cells
  single agent effect on cell viability: little or no effect
